Measurements: patent US11839612B1, “Compounds and combinations thereof for treating neurological and psychiatric conditions” (priority 2022, dated 2023)
Entries after “also recorded” stand apart in the source; their conditions may differ.

How the values were obtained:
[1] = Pharmacokinetics in subjects with moderate renal impairment vs matched controls
Description: (§1) Data are GMRs and 90% CIs. Reference used are the matched healthy subjects for renal and hepatic impairment studies, and extensive or ultra-extensive CYP2D6 metabolizers.

[2] = Food effect on pharmacokinetics of the subject combination; assay type: in vivo, human; conditions: subject combination administered with food
[3] = Pharmacokinetics in CYP2D6 poor metabolizers vs extensive metabolizers
Description: Approximately 7 to 10% of Caucasians and 3 to 8% of African Americans lack the capacity to metabolize CYP2D6 substrates and are classified as poor metabolizers.
as §1

[4] = Co-administration of paroxetine (strong CYP2D6 inhibitor) and the subject combination
Description: Co-administration of the SSRI paroxetine and the subject combination was studied in 29 healthy volunteers.

plasma protein = test: Plasma protein binding
[5] = Pharmacokinetics after administration of the subject combination (steady state); conditions: human, in vivo; for half-life: mean elimination half-life
[6] = 7 subjects with moderate renal impairment (GFR 30-60 mL/min) vs 6 matched controls with normal renal function
[7] = patients having moderate renal impairment
[8] = 3 poor metabolizers compared to extensive metabolizers
[9] = 20 mg paroxetine concomitantly with tablet twice daily vs tablet twice daily without paroxetine

## CC(NC(C)(C)C)C(=O)c1cccc(Cl)c1 (racemic) [bupropion]
[1]; human, in vivo
  concentrations compared with patients with healthy renal function: higher
  increase in AUC0-2: 1.80 fold
  increase of exposure: approximately 2 fold
  reduction of clearance: 50%

## COc1ccc2c(c1)[C@]13CCCC[C@@H]1[C@H](C2)N(C)CC3 [dextromethorphan]
[2]
  AUC0-2 decrease with food: 14%
  Cmax change with food: unchanged
[1]; [6]
  increase of exposure: approximately 2 fold
  reduction of clearance: 50%
[1]; [7]
  concentrations compared with patients with healthy renal function: higher
  increase in AUC0-2: 2.21 fold
[3]; [8]
  increase in AUC0-12: ~3.4 fold
  increase in Cmax: ~3 fold
[3]; steady state, subject combination
  plasma concentrations in CYP2D6 poor metabolizers compared with non-poor metabolizers: increases; also recorded: generally higher
[4]; [9]
  increase in AUC0-2: 2.69 fold
  increase in Cmax: 2.38 fold
[4]; 29 healthy volunteers, paroxetine co-administered with the subject combination
  change of overall exposure by paroxetine: 2.5 fold
[4]; concomitant use of the subject combination with a strong CYP2D6 inhibitor
  plasma concentrations with concomitant strong CYP2D6 inhibitor: increases
Plasma protein
  fraction unbound: 0.3 to 0.4
[5]
  Tmax: ~3 h
[5]; following 8 days of administration of the subject combination in extensive metabolizers
  half-life: ~22 h
[5]; subject combination
  half-life: 22 h
